Test results taken from patent US20020137929A1, “1 - (3-heterocyclylphenyl) isothiourea, -isourea, -guanidine and -amidine herbicidal agents” (Intellectual Property Department, BASF Aktiengesellschaft, priority 1998, published 2002).

Legend:
CYPSE (Flatsedge) [1] = assay: Postemergence weed control under flooded paddy conditions; format: in vivo, Cyperus serotinus; settings: postemergence weeds, 3-4 weeks after treatment
In short: (§1)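 Flood-water application, about 0.0313–0.500 kg/ha a.i. in aqueous/acetone 50/50 v/v; water depth 1.5–3 cm throughout. Weeds 3–5 cm, rice 1.5–2.5 leaf. Greenhouse; 0–9 visual rating vs control at 3–4 wk.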

[2] = test system: TRZAWR (Wheat, Winter, cv Riband); assay: Preemergence herbicidal evaluation; format: in vivo, Triticum aestivum; settings: rated 4-5 weeks after treatment
In short: (§2)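 Steps: mix seeds into potting soil; plant atop ~1 inch soil; spray compound in aqueous acetone (~0.0156-0.500 kg/ha equivalent); maintain in greenhouse with watering; rate visually 0-9 versus control at 4-5 weeks.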

ZEAMX (Corn, Field) [3] = assay: Postemergence herbicidal evaluation; format: in vivo, Zea mays
In short: (§3)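 Each compound, dispersed in an acetone/water mix (50/50) carrying 0.5% TWEEN 20, is nozzle-sprayed at 40 psi on approximately two-week-old seedlings at about 0.0156–0.500 kg/ha. Plants are assessed 4–5 weeks afterward on a 0–9 scale relative to control; duplicate tests are averaged.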

ORYSAT (Rice, Tebonnet) = assay: Postemergence herbicidal evaluation; format: in vivo, Oryza sativa, (L.) Tebonnet
In short: as §3

SETVI (Foxtail, Green) [4] = assay: Preemergence herbicidal evaluation; format: in vivo, Setaria viridis; settings: rated 4-5 weeks after treatment
In short: as §2

[5] = test system: SAGPY (Arrowhead (Pygmaea)); assay: Postemergence weed control under flooded paddy conditions; format: in vivo, Sagittaria pygmaea; settings: postemergence weeds, 3-4 weeks after treatment
In short: as §1

CYPSE (Flatsedge) [6] = assay: Preemergence weed control under flooded paddy conditions; format: in vivo, Cyperus serotinus; settings: rated 3-4 weeks after treatment
In short: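 Silt loam, seeds in top 0.5 cm; flood held 1.5-3 cm; test cpd as acetone/water 50/50 into flood water, ~0.0313-0.500 kg/ha a.i.; greenhouse 3-4 wk; visual 0-9 score vs control.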

SETVI (Foxtail, Green) [7] = assay: Postemergence herbicidal evaluation; format: in vivo, Setaria viridis
In short: as §3

CYPIR (Rice Flatsedge) [8] = assay: Preemergence weed control under flooded paddy conditions; format: in vivo, Cyperus iria; settings: rated 3-4 weeks after treatment
In short: (§4)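 Herbicidal effect is scored visually on a 0-9 scale against an untreated control, three to four weeks after compounds are pipetted into the flood water (1.5 to 3 cm deep) over seeds planted in silt loam at 0.5 cm depth. Rates: about 0.0313 to 0.500 kg/ha.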

[9] = test system: ECHORC (Watergrass (Calif.)); assay: as above; format: in vivo, Echinochloa oryzoides; settings: rated 3-4 weeks after treatment
In short: as §4

ZEAMX (Corn, Field) [10] = assay: Preemergence herbicidal evaluation; format: in vivo, Zea mays; settings: rated 4-5 weeks after treatment
In short: as §2

CYPIR (Rice Flatsedge) [11] = assay: Postemergence weed control under flooded paddy conditions; format: in vivo, Cyperus iria; settings: postemergence weeds, 3-4 weeks after treatment
In short: as §1

[12] = test system: ECHORC (Watergrass (Calif.)); assay: as above; format: in vivo, Echinochloa oryzoides; settings: postemergence weeds, 3-4 weeks after treatment
In short: as §1

ECHCG (Barnyardgrass) = assay: Preemergence herbicidal evaluation; format: in vivo, Echinochloa crus-galli; settings: rated 4-5 weeks after treatment
In short: as §2

CCOC(=O)CCN1C(=O)CSC1=Nc1cc(-n2c(=O)cc(C(F)(F)F)n(C)c2=O)c(Cl)cc1Cl [Compound 32, Ethyl 2-{{2,4-dichloro-5-[3,6-dihydro-3-methyl-2,6-dioxo-4-(trifluoromethyl)-1(2H)-pyrimidinyl]-phenyl}imino}-4-oxo-3-thiazolidinepropionate]
Herbicidal rating CYPSE (CYPSE (Flatsedge) [1]; rate 0.1250 kg/ha): 0.0 | Herbicidal rating CYPSE (CYPSE (Flatsedge) [1]; rate 0.2500 kg/ha): 0.0 | Preemergence herbicidal rating TRZAWR ([2]; rate 0.0156 kg/ha): 0.0 | Preemergence herbicidal rating TRZAWR ([2]; rate 0.0313 kg/ha): 0.0 | Preemergence herbicidal rating TRZAWR ([2]; rate 0.0625 kg/ha): 0.0 | Preemergence herbicidal rating TRZAWR ([2]; rate 0.1250 kg/ha): 0.0 | Preemergence herbicidal rating TRZAWR ([2]; rate 0.2500 kg/ha): 1.0 | Preemergence herbicidal rating TRZAWR ([2]; rate 0.5000 kg/ha): 3.0 | Postemergence herbicidal rating ZEAMX (ZEAMX (Corn, Field) [3]; Rate 0.0158 kg/ha): 4.0 | Postemergence herbicidal rating ZEAMX (ZEAMX (Corn, Field) [3]; Rate 0.0313 kg/ha): 6.0 | Postemergence herbicidal rating ZEAMX (ZEAMX (Corn, Field) [3]; Rate 0.0625 kg/ha): 7.0 | Postemergence herbicidal rating ZEAMX (ZEAMX (Corn, Field) [3]; Rate 0.1250 kg/ha): 7.0 | Postemergence herbicidal rating ORYSAT (ORYSAT (Rice, Tebonnet); Rate 0.0158 kg/ha): 1.0 | Postemergence herbicidal rating ORYSAT (ORYSAT (Rice, Tebonnet); Rate 0.0313 kg/ha): 2.0 | Postemergence herbicidal rating ORYSAT (ORYSAT (Rice, Tebonnet); Rate 0.0625 kg/ha): 3.0 | Postemergence herbicidal rating ORYSAT (ORYSAT (Rice, Tebonnet); Rate 0.1250 kg/ha): 3.5 | Preemergence herbicidal rating SETVI (SETVI (Foxtail, Green) [4]; rate 0.0156 kg/ha): 0.0 | Preemergence herbicidal rating SETVI (SETVI (Foxtail, Green) [4]; rate 0.0313 kg/ha): 0.0 | Preemergence herbicidal rating SETVI (SETVI (Foxtail, Green) [4]; rate 0.0625 kg/ha): 0.5 | Preemergence herbicidal rating SETVI (SETVI (Foxtail, Green) [4]; rate 0.1250 kg/ha): 3.5 | Preemergence herbicidal rating SETVI (SETVI (Foxtail, Green) [4]; rate 0.2500 kg/ha): 9.0 | Preemergence herbicidal rating SETVI (SETVI (Foxtail, Green) [4]; rate 0.5000 kg/ha): 9.0 | Herbicidal rating SAGPY ([5]; rate 0.1250 kg/ha): 0.0 | Herbicidal rating SAGPY ([5]; rate 0.2500 kg/ha): 0.0 | Herbicidal rating CYPSE (CYPSE (Flatsedge) [6]; 0.1250 kg/ha): 0.0 | Herbicidal rating CYPSE (CYPSE (Flatsedge) [6]; 0.2500 kg/ha): 0.0 | Postemergence herbicidal rating SETVI (SETVI (Foxtail, Green) [7]; Rate 0.0158 kg/ha): 0.0 | Postemergence herbicidal rating SETVI (SETVI (Foxtail, Green) [7]; Rate 0.0313 kg/ha): 0.0 | Postemergence herbicidal rating SETVI (SETVI (Foxtail, Green) [7]; Rate 0.0625 kg/ha): 0.0 | Postemergence herbicidal rating SETVI (SETVI (Foxtail, Green) [7]; Rate 0.1250 kg/ha): 7.0 | Herbicidal rating CYPIR (CYPIR (Rice Flatsedge) [8]; 0.1250 kg/ha): 0.0 | Herbicidal rating CYPIR (CYPIR (Rice Flatsedge) [8]; 0.2500 kg/ha): 0.0 | Herbicidal rating ECHORC ([9]; 0.1250 kg/ha): 3.0 | Herbicidal rating ECHORC ([9]; 0.2500 kg/ha): 6.0 | Preemergence herbicidal rating ZEAMX (ZEAMX (Corn, Field) [10]; rate 0.0156 kg/ha): 0.0 | Preemergence herbicidal rating ZEAMX (ZEAMX (Corn, Field) [10]; rate 0.0313 kg/ha): 0.0 | Preemergence herbicidal rating ZEAMX (ZEAMX (Corn, Field) [10]; rate 0.0625 kg/ha): 0.0 | Preemergence herbicidal rating ZEAMX (ZEAMX (Corn, Field) [10]; rate 0.1250 kg/ha): 0.5 | Preemergence herbicidal rating ZEAMX (ZEAMX (Corn, Field) [10]; rate 0.2500 kg/ha): 4.5 | Preemergence herbicidal rating ZEAMX (ZEAMX (Corn, Field) [10]; rate 0.5000 kg/ha): 6.0 | Herbicidal rating CYPIR (CYPIR (Rice Flatsedge) [11]; rate 0.1250 kg/ha): 0.0 | Herbicidal rating CYPIR (CYPIR (Rice Flatsedge) [11]; rate 0.2500 kg/ha): 0.0 | Herbicidal rating ECHORC ([12]; rate 0.1250 kg/ha): 3.0 | Herbicidal rating ECHORC ([12]; rate 0.2500 kg/ha): 6.0 | Preemergence herbicidal rating ECHCG (ECHCG (Barnyardgrass); rate 0.0156 kg/ha): 0.0 | Preemergence herbicidal rating ECHCG (ECHCG (Barnyardgrass); rate 0.0313 kg/ha): 0.0 | Preemergence herbicidal rating ECHCG (ECHCG (Barnyardgrass); rate 0.0625 kg/ha): 0.0 | Preemergence herbicidal rating ECHCG (ECHCG (Barnyardgrass); rate 0.1250 kg/ha): 0.5 | Preemergence herbicidal rating ECHCG (ECHCG (Barnyardgrass); rate 0.2500 kg/ha): 0.0 | Preemergence herbicidal rating ECHCG (ECHCG (Barnyardgrass); rate 0.5000 kg/ha): 1.0
